The values that follow come from patent publication US8999967B2, “Tricyclic fused ring inhibitors of hepatitis C” (Presidio Pharmaceuticals, Inc., priority 2010, dated 2015).

The subject of the test is HCV 1b_Huh-Luc/Neo-ET cell line (genotype 1b replicon in Huh 7 cells). In words: HCV replicon assay (luciferase readout). It counts as cell-based. As to conditions: Hepatitis C virus, HCV 1b replicon in Huh 7 cells, 72 h incubation, EC50 range class, read-out: Inhibition of HCV genotype 1b. The protocol:
Biological activity of the compounds of the invention was determined using an HCV replicon assay. The HCV 1b_Huh-Luc/Neo-ET cell line persistently expressing a bicistronic genotype 1b replicon in Huh 7 cells was obtained from ReBLikon GMBH. This cell line was used to test compound inhibition using luciferase enzyme activity readout as a measurement of compound inhibition of replicon levels.
On Day 1 (the day after plating cells), each compound is added in triplicate to the cells. Plates are incubated for 72 h prior to determining luciferase levels. Enzyme activity was measured using a Bright-Glo Kit (cat. number E2620) manufactured by Promega Corporation. The following equation was used to generate a percent control value for each compound. % Control=(Compound Luciferase Level/Control Luciferase Level)*100
The EC50 value was determined using GraphPad Prism and the following equation: Y=Bottom asymptote+(Top asymptote-Bottom asymptote)/(1+10^((Log EC50−X)*HillSlope))
EC50 values of compounds are determined several times in the replicon assay to generate average EC50 values. […]
On the technique in general: Replicon systems follow genome replication, usually without infectious particles.
Regarding `CC[C@H](C)[C@H](NC(=O)OC)C(=O)N1CCC[C@H]1c1ncc(-c2ccc3c(=O)c4cc(-c5cnc([C@@H]6CCCN6C(=O)[C@@H](NC(=O)OC)[C@@H](C)CC)[nH]5)ccc4oc3c2)[nH]1` [Compound 138], the EC50 is under 1 nM.
With `[2H]C([2H])([2H])C([2H])(C([2H])([2H])[2H])[C@]([2H])(NC(=O)OC)C(=O)N1CCC[C@H]1c1ncc(-c2ccc3c(c2)C(C)(C)c2ccc(-c4ccc5nc([C@@H]6CCCN6C(=O)[C@@]([2H])(NC(=O)OC)C([2H])(C([2H])([2H])[2H])C([2H])([2H])[2H])[nH]c5c4)cc2O3)[nH]1` [Compound 147] the figure was under 1 nM.
With `CC[C@H](C)[C@H](NC(=O)OC)C(=O)N1CCC[C@H]1c1ncc(-c2ccc3oc4cc(-c5ccc6nc([C@@H]7CCCN7C(=O)[C@@H](NC(=O)OC)C(C)C)[nH]c6c5)ccc4c(=O)c3c2)[nH]1` [Compound 136] the figure was under 1 nM.
As to `COC(=O)N[C@@H](C(=O)N1CCOC[C@H]1c1ncc(-c2ccc3c(c2)Oc2ccc(-c4cnc([C@@H]5COCCN5C(=O)[C@H](NC(=O)OC)c5ccccc5)[nH]4)cc2O3)[nH]1)c1ccccc1` [Compound 65], the EC50 is under 1 nM.
For the compound `COC(=O)N[C@H](C(=O)N1CCOC[C@H]1c1ncc(-c2ccc3c(c2)Oc2ccc(-c4cnc([C@@H]5COCCN5C(=O)[C@@H](NC(=O)OC)C(C)C)[nH]4)cc2O3)[nH]1)C(C)C` [Compound 64], the EC50 is under 1 nM.
Then `CC[C@H](C)[C@H](NC(=O)OC)C(=O)N1CCC[C@H]1c1ncc(-c2ccc3c(c2)Cc2cc(F)c(-c4cnc([C@@H]5CCCN5C(=O)[C@@H](NC(=O)OC)[C@@H](C)OC)[nH]4)cc2O3)[nH]1` [Compound 41], with under 1 nM; and `COC(=O)N[C@@H](C(=O)N1CCC[C@H]1c1ncc(-c2ccc3oc4cc(-c5cnc([C@@H]6CCCN6C(=O)[C@H](NC(=O)OC)c6ccccc6)[nH]5)c(C)cc4c(=O)c3c2)[nH]1)c1ccccc1` [Compound 127], with under 1 nM.
For `COC(=O)N[C@H](C(=O)N1CCC[C@H]1c1ncc(-c2ccc3c(=O)c4cc(-c5cnc([C@@H]6CCCN6C(=O)[C@@H](NC(=O)OC)C6CCCC6)[nH]5)ccc4oc3c2)[nH]1)C1CCCC1` [Compound 139], the EC50 was under 1 nM.
Regarding `CC[C@H](C)[C@H](NC(=O)OC)C(=O)N1CCC[C@H]1c1ncc(-c2cc3c(cc2F)Cc2cc(-c4cnc([C@@H]5CCCN5C(=O)[C@@H](NC(=O)OC)C5CCOCC5)[nH]4)ccc2O3)[nH]1` [Compound 59], the EC50 is under 1 nM.
For the compound `COC(=O)N[C@H](C(=O)N1CCC[C@H]1c1ncc(-c2ccc3c(c2)CCc2ccc(-c4cnc([C@@H]5CCCN5C(=O)[C@@H](NC(=O)OC)C(C)C)[nH]4)cc2O3)[nH]1)C(C)C` [Example 12], the EC50 was under 1 nM.
Then `COC(=O)N[C@H](C(=O)N1CCC[C@H]1c1ncc(-c2ccc3nc4cc(-c5cnc([C@@H]6CCCN6C(=O)[C@@H](NC(=O)OC)C(C)C)[nH]5)ccc4nc3c2)[nH]1)C(C)C` [Example 1], with under 1 nM; and `COC(=O)N[C@H](C(=O)N1CCC[C@H]1c1ncc(-c2ccc3c(=O)c4cc(-c5cnc([C@@H]6COCCN6C(=O)[C@@H](NC(=O)OC)C(C)C)[nH]5)ccc4oc3c2)[nH]1)C(C)C` [Compound 142], with under 1 nM; and `COC(=O)N[C@@H](C(=O)N1CCC[C@H]1c1ncc(-c2ccc3c(c2)C(C)(C)c2ccc(-c4ccc5nc([C@@H]6CCCN6C(=O)[C@H](NC(=O)OC)c6ccccc6)[nH]c5c4)cc2O3)[nH]1)c1ccccc1` [Compound 134], with under 1 nM.
Take `COC(=O)N[C@@H](C(=O)N1CSC[C@H]1c1ncc(-c2ccc3c(c2)Oc2ccc(-c4cnc([C@@H]5CSCN5C(=O)[C@H](NC(=O)OC)c5ccccc5)[nH]4)cc2O3)[nH]1)c1ccccc1` [Compound 37]: the EC50 is under 1 nM.
Consider `COC(=O)N[C@H](C(=O)N1CCC[C@H]1c1ncc(-c2ccc3c(=O)c4cc(-c5cnc([C@@H]6CCCN6C(=O)[C@@H](NC(=O)OC)C6CCOCC6)[nH]5)ccc4oc3c2)[nH]1)C(C)C` [Example 16], for which the EC50 is under 1 nM.
For `COC(=O)N[C@H](C(=O)N1CCC[C@H]1c1ncc(-c2ccc3oc4cc(-c5cnc([C@@H]6CCCN6C(=O)[C@@H](NC(=O)OC)C(C)C)[nH]5)c(F)cc4c(=O)c3c2)[nH]1)C(C)C` [Example 22], the EC50 is under 1 nM.
Take `COC(=O)N[C@H](C(=O)N1CCC[C@H]1c1nc2ccc(-c3ccc4c(=O)c5cc(-c6cnc([C@@H]7CCCN7C(=O)[C@@H](NC(=O)OC)[C@@H](C)OC)[nH]6)ccc5oc4c3)cc2[nH]1)C(C)C` [Compound 135]: the EC50 was under 1 nM.
Regarding `CC[C@H](C)[C@H](NC(=O)OC)C(=O)N1CCCC[C@H]1c1ncc(-c2ccc3oc4cc(-c5cnc([C@@H]6CCCN6C(=O)[C@@H](NC(=O)OC)[C@@H](C)CC)[nH]5)ccc4c(=O)c3c2)[nH]1` [Compound 132], the EC50 is under 1 nM.
Then `COC(=O)N[C@H](C(=O)N1CCC[C@H]1c1ncc(-c2ccc3c(c2)Oc2ccc(-c4cnc([C@@H]5CCCN5C(=O)[C@@H](NC(=O)OC)[C@@H](C)OC)[nH]4)cc2O3)[nH]1)[C@@H](C)OC` [Compound 34], with under 1 nM; and `C=CC[C@H](NC(=O)OC)C(=O)N1CCC[C@H]1c1ncc(-c2ccc3c(c2)C(C)(C)c2ccc(-c4ccc5nc([C@@H]6CCCN6C(=O)[C@H](CC=C)NC(=O)OC)[nH]c5c4)cc2O3)[nH]1` [Compound 148], with under 1 nM.
Take `CC[C@H](C)[C@H](NC(=O)OC)C(=O)N1CCC[C@H]1c1ncc(-c2ccc3c(=O)c4cc(-c5cnc([C@@H]6CSCN6C(=O)[C@@H](NC(=O)OC)[C@@H](C)CC)[nH]5)ccc4oc3c2)[nH]1` [Compound 123]: the EC50 is under 1 nM.
With `COC(=O)N[C@H](C(=O)N1CCCC[C@H]1c1ncc(-c2ccc3oc4cc(-c5cnc([C@@H]6CCCN6C(=O)[C@@H](NC(=O)OC)C(C)C)[nH]5)ccc4c(=O)c3c2)[nH]1)C(C)C` [Compound 141] the figure was under 1 nM; with `COC(=O)N[C@H](C(=O)N1CSC[C@H]1c1ncc(-c2ccc3c(c2)Oc2ccc(-c4cnc([C@@H]5CSCN5C(=O)[C@@H](NC(=O)OC)C(C)C)[nH]4)cc2O3)[nH]1)C(C)C` [Compound 36], under 1 nM.
Then `CC[C@H](C)[C@H](NC(=O)OC)C(=O)N1CSC[C@H]1c1ncc(-c2ccc3c(c2)Oc2ccc(-c4cnc([C@@H]5CSCN5C(=O)[C@@H](NC(=O)OC)[C@@H](C)CC)[nH]4)cc2O3)[nH]1` [Compound 67], with under 1 nM; and `COC(=O)N[C@H](C(=O)N1CCC[C@H]1c1ncc(-c2ccc3oc4cc(-c5cnc([C@@H]6CCCN6C(=O)[C@H](NC(=O)OC)c6ccccc6)[nH]5)ccc4c(=O)c3c2)[nH]1)C(C)C` [Example 18], with under 1 nM.
In the case of `CC[C@H](C)[C@H](NC(=O)OC)C(=O)N1CCC[C@H]1c1ncc(-c2ccc3c(c2)Cc2cc(F)c(-c4cnc([C@@H]5CCCN5C(=O)[C@@H](NC(=O)OC)[C@@H](C)CC)[nH]4)cc2O3)[nH]1` [Compound 53], the EC50 is under 1 nM.
Consider `COC(=O)N[C@H](C(=O)N1CCC[C@H]1c1ncc(-c2ccc3oc4cc(-c5cnc([C@@H]6CCCN6C(=O)[C@@H](NC(=O)OC)C6CCOCC6)[nH]5)ccc4c(=O)c3c2)[nH]1)C(C)C` [Example 17], for which the EC50 is under 1 nM.
As to `COC(=O)N[C@H](C(=O)N[C@@H](C)c1ncc(-c2ccc3c(c2)Oc2ccc(-c4cnc([C@H](C)NC(=O)[C@@H](NC(=O)OC)C(C)C)[nH]4)cc2O3)[nH]1)C(C)C` [Compound 39], the EC50 is under 1 nM.
On to `COC(=O)N[C@H](C(=O)N1CCC[C@H]1c1ncc(-c2ccc3c(c2)C(C)(C)c2ccc(-c4ccc5nc([C@@H]6CCCN6C(=O)[C@@H](NC(=O)OC)[C@@H](C)OC)[nH]c5c4)cc2O3)[nH]1)[C@@H](C)OC` [Compound 146], for which the EC50 is under 1 nM.
Then `COC(=O)N[C@H](C(=O)N1CCC[C@H]1c1ncc(-c2ccc3c(c2)Cc2ccc(-c4cnc([C@@H]5CCCN5C(=O)[C@@H](NC(=O)OC)C5CCCC5)[nH]4)cc2O3)[nH]1)C1CCCC1` [Compound 32], with under 1 nM; and `COC(=O)N[C@@H](C(=O)N[C@@H](C)c1ncc(-c2ccc3c(c2)Oc2ccc(-c4cnc([C@H](C)NC(=O)[C@H](NC(=O)OC)c5ccccc5)[nH]4)cc2O3)[nH]1)c1ccccc1` [Compound 38], with under 1 nM.
Take `COC(=O)N[C@H](C(=O)N1CCC[C@H]1c1nc2ccc(-c3ccc4c(=O)c5cc(-c6cnc([C@@H]7CCCN7C(=O)[C@H](NC(=O)OC)c7ccccc7)[nH]6)ccc5oc4c3)cc2[nH]1)C(C)C` [Compound 137]: the EC50 was under 1 nM.
With `COC(=O)N[C@H](C(=O)N1CCC[C@H]1c1ncc(-c2ccc3c(c2)Cc2cc(-c4cnc([C@@H]5CCCN5C(=O)[C@@H](NC(=O)OC)C(C)C)[nH]4)ccc2O3)[nH]1)C(C)C` [Example 4] the figure was 10 to 999 nM; with `COC[C@H](NC(=O)OC)C(=O)N1CCC[C@H]1c1ncc(-c2ccc3c(c2)Cc2cc(F)c(-c4cnc([C@@H]5CCCN5C(=O)[C@@H](NC(=O)OC)C(C)C)[nH]4)cc2O3)[nH]1` [Compound 45], under 1 nM.
In the case of `COC(=O)N[C@H](C(=O)N1CCC[C@H]1c1ncc(-c2cc3oc4ccc(-c5cnc([C@@H]6CCCN6C(=O)[C@H](NC(=O)OC)c6ccccc6)[nH]5)cc4c(=O)c3cc2F)[nH]1)C(C)C` [Example 27], the EC50 was under 1 nM.
Then `COC(=O)N[C@H](C(=O)N1CSC[C@H]1c1ncc(-c2ccc3c(c2)Oc2ccc(-c4cnc([C@@H]5CSCN5C(=O)[C@@H](NC(=O)OC)C5CCCC5)[nH]4)cc2O3)[nH]1)C1CCCC1` [Compound 66], with under 1 nM.
